Reference: ChEMBL document CHEMBL1921754, “Sodium dl-α-tocopheryl-6-O-phosphate inhibits PGE₂ production in keratinocytes induced by UVB, IL-1β and peroxidants” (Bioorg Med Chem, 2011)
Activity calls are given as the source filed them. No cut-off for these calls is given here.

Key:
[1] = Protection against UVB irradiation-induced cell damage in NHEK assessed as inhibition of PGE2 production at 2 uM pretreated for 24 hrs before UVB irradiation measured after 24 hrs by enzymatic immunoassay; format: functional; settings: Homo sapiens, light or radiation study
Keratinocyte = experiment: Protection against UVB irradiation-induced SV40-transformed human keratinocytes damage assessed as inhibition of PGE2 production at 30 uM pretreated for 24 hrs before UVB irradiation measured after 24 hrs by ELISA; format: functional, cell-based
[2] = Protection against IL1-beta-induced cell damage in NHEK assessed as inhibition of PGE2 production at 2 uM pretreated for 24 hrs before IL1-beta challenge measured after 24 hrs by enzymatic immunoassay; format: functional; settings: Homo sapiens
[3] = Protection against H2O2-induced cell damage in NHEK assessed as inhibition of PGE2 production at 2 uM pretreated for 24 hrs before H2O2 challenge measured after 24 hrs by enzymatic immunoassay; format: functional; settings: Homo sapiens
[4] = Protection against IL1-beta-induced cell damage in NHEK assessed as inhibition of PGE2 production at 0.1 uM pretreated for 24 hrs before IL1-beta challenge measured after 24 hrs by enzymatic immunoassay; format: functional; settings: Homo sapiens
Homo sapiens [5] = species: Homo sapiens; experiment: Protection against H2O2-induced cell damage in NHEK assessed as inhibition of PGE2 production at 0.5 to 2 uM after 24 hrs by enzymatic immunoassay; format: functional
Zone of skin = experiment: Prodrug conversion in 3D restructured human skin model assessed as conversion of compound to dl-alpha-tocopherol at 2% after 4 hrs by HPLC analysis; format: ADME, tissue-based
[6] = (§1) Protection against t-BHP-induced cell damage in NHEK assessed as inhibition of PGE2 production at 2 uM pretreated for 24 hrs before t-BHP challenge measured after 24 hrs by enzymatic immunoassay; format: functional; settings: Homo sapiens
[7] = Protection against IL1-beta-induced cell damage in NHEK assessed as inhibition of PGE2 production at 0.5 uM pretreated for 24 hrs before IL1-beta challenge measured after 24 hrs by enzymatic immunoassay; format: functional; settings: Homo sapiens
[8] = Protection against H2O2-induced cell damage in NHEK assessed as inhibition of PGE2 production at 0.5 to 2 uM pretreated for 24 hrs before H2O2 challenge measured after 24 hrs by enzymatic immunoassay; format: functional, Homo sapiens
Homo sapiens [9] = species: Homo sapiens; experiment: as §1; format: functional

SMILES	inhibition at 2 µM [1] [%]	inhibition at 2 µM [2] [%]	inhibition (Homo sapiens [5])	inhibition at 0.5 µM [7] [%]	also measured
Cc1ccc(S(=O)(=O)/C=C/C#N)cc1	9	–	–	–	–
O=C1O[C@H]([C@@H](O)CO)C(O)=C1OP(=O)(O)O	–	–	–	–	inhibition (Keratinocyte): inactive
CC(=O)Oc1c(C)c(C)c2c(c1C)CC[C@@](C)(CCC[C@H](C)CCC[C@H](C)CCCC(C)C)O2 (racemic)	–	67	inactive	40	inhibition at 2 µM [3]: 25%; inhibition at 0.1 µM [4]: 38%; Drug metabolism (Zone of skin): Active; inhibition at 2 µM [6]: 77.4%
CC1(C)[C@@H](O[C@H]2O[C@H](C(=O)[O-])[C@@H](O)[C@H](O)[C@H]2O[C@@H]2O[C@H](C(=O)[O-])[C@@H](O)[C@H](O)[C@H]2O)CC[C@]2(C)[C@H]3C(=O)C=C4[C@@H]5C[C@@](C)(C(=O)O)CC[C@]5(C)CC[C@@]4(C)[C@]3(C)CC[C@@H]12.[K+].[K+] [GLYCYRRHIZINATE DIPOTASSIUM]	–	24	inactive	14	inhibition (INH) [8]: 40%; inhibition (Homo sapiens [9]): inactive
C[S+]([O-])c1ccc(-c2nc(-c3ccc(F)cc3)c(-c3ccncc3)[nH]2)cc1 (stereo unspecified) [SB-203580]	73	–	–	–	–
Oc1c2ccccc2c2c3c(cccc13)N=N2 [SP-600125]	33	–	–	–	–
